Data published in patent publication US7473688B2, “Indolobenzazepine HCV NS5B inhibitors” (Bristol-Myers Squibb Company, priority 2005, dated 2009).
Where two headings read alike, the source gives them in different places.

Experiments:
HCV NS5B = molecular target: T1, HCV NS5B (Hepatitis C virus genotype 1b, UniProt Q9WMX2); assay: HCV NS5B RdRp enzyme assay (preincubation protocol); assay type: biochemical
T1 construct: The protein was expressed with an 18 amino acid C-terminal truncation to enhance the solubility; made in house; host or cells: E. coli BL21 (DE3), pET21a
Outline: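 C-terminally truncated (Δ18) genotype 1b NS5B from E. coli, 14 nM, added to compound, then polyA template (0.2 nM), 3H-UTP (0.29 μM) and oligo-dT12 primer precaptured on streptavidin SPA beads. 4 h at 30 °C, pH 7.5, 2% DMSO; SPA readout; IC50 from seven concentrations by logistic fit.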

HCV replicon = HCV replicon FRET assay; assay type: cell-based; details: Hepatitis C virus
Outline: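 HCV replicon cells, with or without Renilla luciferase reporter, incubated with titrated compounds at 37 °C; Alamar blue read for cytotoxicity. NS3 protease activity read from lysates with 20 μM EDANS/DABCYL FRET peptide (340/490 nm, kinetic), or by Dual-Glo luciferase. Background from highest protease-inhibitor wells; EC50 = 50% signal reduction.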

[1] = Table 1, FRET assay, read-out: EC50*
[2] = Table 1b, FRET assay, read-out: EC50*
[3] = Table 1a, FRET assay, read-out: EC50*

T1 sequence (Q9WMX2 2420-2992): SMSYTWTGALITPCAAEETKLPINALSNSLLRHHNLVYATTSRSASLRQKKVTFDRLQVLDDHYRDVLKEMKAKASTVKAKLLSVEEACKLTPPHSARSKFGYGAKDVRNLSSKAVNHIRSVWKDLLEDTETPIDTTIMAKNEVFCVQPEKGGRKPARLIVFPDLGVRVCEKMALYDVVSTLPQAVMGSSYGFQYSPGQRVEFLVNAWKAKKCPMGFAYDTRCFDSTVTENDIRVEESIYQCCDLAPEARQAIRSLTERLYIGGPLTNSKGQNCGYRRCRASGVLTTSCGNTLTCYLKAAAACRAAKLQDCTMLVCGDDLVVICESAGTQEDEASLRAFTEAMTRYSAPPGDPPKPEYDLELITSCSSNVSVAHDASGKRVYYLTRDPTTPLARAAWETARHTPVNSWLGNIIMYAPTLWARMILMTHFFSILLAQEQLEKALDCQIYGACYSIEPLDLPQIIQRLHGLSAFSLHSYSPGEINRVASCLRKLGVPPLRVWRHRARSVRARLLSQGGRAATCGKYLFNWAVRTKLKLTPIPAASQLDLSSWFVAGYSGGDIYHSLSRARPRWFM

SMILES | IC50 (HCV NS5B; Table 1, read-out: IC50*) [nM] | EC50 (HCV replicon; [1]) [nM] | other results
Cn1ncc(CNC(=O)c2ccc3c(C4CCCCC4)c4n(c3c2)CC(C(=O)N2CCOCC2)=Cc2ccccc2-4)n1 | 10 to 1000 | 1000 to 10000 | 
COC[C@@H]1CN(C(=O)C2=Cc3cc(OC)ccc3-c3c(C4CCCCC4)c4ccc(C(=O)NS(=O)(=O)N(C)C)cc4n3C2)CCO1 |  |  | IC50 (HCV NS5B; Table 1b, read-out: IC50*): 20 to 1000 nM; EC50 (HCV replicon; [2]): 30 to 1000 nM
CN(C)S(=O)(=O)NC(=O)c1ccc2c(C3CCCCC3)c3n(c2c1)CC(C(=O)N1CCC(N2CCOCC2)CC1)Cc1ccccc1-3 (stereo not drawn) | 10 to 1000 | 70 to 1000 | 
COCCNC(=O)CN(C)C(=O)NC1Cc2cc(OC)ccc2-c2c(C3CCCCC3)c3ccc(C(=O)NS(=O)(=O)N(C)C)cc3n2C1 (stereo not drawn) |  |  | IC50 (HCV NS5B; Table 1b, read-out: IC50*): 20 to 1000 nM; EC50 (HCV replicon; [2]): 30 to 1000 nM
COc1ccc2c(c1)C=C(C(=O)N1CC(OC)C1)Cn1c-2c(C2CCCCC2)c2ccc(C(=O)NS(=O)(=O)N(C)C)cc21 |  |  | IC50 (HCV NS5B; Table 1a, read-out: IC50*): < 20 nM; EC50 (HCV replicon; [3]): 30 to 1000 nM
COc1ccc2c(c1)CC(NC(=O)N1C[C@@H](C)N(C(C)=O)[C@@H](C)C1)Cn1c-2c(C2CCCCC2)c2ccc(C(=O)NS(=O)(=O)N(C)C)cc21 (stereo partly drawn) |  |  | IC50 (HCV NS5B; Table 1a, read-out: IC50*): 10 to 1000 nM; EC50 (HCV replicon; [3]): 30 to 1000 nM
CN(C)S(=O)(=O)NC(=O)c1ccc2c(C3CCCCC3)c3n(c2c1)CC(C(=O)N1CCC(F)(F)CC1)=Cc1ccccc1-3 | 10 to 1000 | 70 to 1000 | 
COc1ccc2c(c1)CC(NC(N)=O)Cn1c-2c(C2CCCCC2)c2ccc(C(=O)NS(=O)(=O)N(C)C)cc21 (stereo not drawn) |  |  | IC50 (HCV NS5B; Table 1b, read-out: IC50*): 20 to 1000 nM; EC50 (HCV replicon; [2]): 30 to 1000 nM
COC(=O)c1ccc2c(C3CCCCC3)c3n(c2c1)CC(C(=O)N1CCCC(F)C1)=Cc1ccccc1-3 (stereo not drawn) | 10 to 1000 | > 370 | 
CCN(C(C)=O)C1CCN(C(=O)NC2Cc3cc(OC)ccc3-c3c(C4CCCCC4)c4ccc(C(=O)NS(=O)(=O)N(C)C)cc4n3C2)C1 (stereo not drawn) |  |  | IC50 (HCV NS5B; Table 1a, read-out: IC50*): 10 to 1000 nM; EC50 (HCV replicon; [3]): 30 to 1000 nM
O=C(O)c1ccc2c(C3CCCCC3)c3n(c2c1)CC(C(=O)N1CCC(N2CCC(F)CC2)CC1)=Cc1ccccc1-3 | 10 to 1000 | 70 to 1000 | 
CN(C)S(=O)(=O)NC(=O)c1ccc2c(C3CCCCC3)c3n(c2c1)CC(C(=O)N1CCC(Oc2ncccn2)CC1)=Cc1ccccc1-3 | 10 to 1000 | 70 to 1000 | 
CN(C)S(=O)(=O)NC(=O)c1ccc2c(C3CCCCC3)c3n(c2c1)CC(C(=O)N1C2CCC1CC2)=Cc1ccccc1-3 | 10 to 1000 |  | EC50 (HCV replicon): 70 to 1000 nM
CN1CCC2(CC1)CN(C(=O)C1=Cc3ccccc3-c3c(C4CCCCC4)c4ccc(C(=O)O)cc4n3C1)C2 | 10 to 1000 | 70 to 1000 | 
COc1ccc(-c2[nH]c3cc(C(=O)NS(=O)(=O)N(C)C)ccc3c2C2CCCCC2)c(C(=O)N(C)CC(=O)N(C)C)c1 |  |  | IC50 (HCV NS5B; Table 1a, read-out: IC50*): 10 to 1000 nM; EC50 (HCV replicon; [3]): 30 to 1000 nM
O=C(O)c1ccc2c(C3CCCCC3)c3n(c2c1)C[C@@H](NC(=O)N1CCOCC1)Cc1ccccc1-3 | 10 to 1000 | 70 to 1000 | 
O=C(NS(=O)(=O)N1CCOCC1)c1ccc2c(C3CCCCC3)c3n(c2c1)CC(C(=O)N1CCC(N2CCOCC2)CC1)=Cc1ccccc1-3 | 10 to 1000 | 70 to 1000 | 
COc1ccc2c(c1)CC(NC(=O)N1CCC(N3CCOCC3)CC1)Cn1c-2c(C2CCCCC2)c2ccc(C(=O)NS(=O)(=O)N(C)C)cc21 (stereo not drawn) |  |  | IC50 (HCV NS5B; Table 1a, read-out: IC50*): 10 to 1000 nM; EC50 (HCV replicon; [3]): 30 to 1000 nM
CN(C)S(=O)(=O)NC(=O)c1ccc2c(C3CCCCC3)c3n(c2c1)CC(C(=O)N1CCN(c2nccs2)CC1)=Cc1ccccc1-3 | 10 to 1000 | 70 to 1000 | 
COc1ccc2c(c1)CC(NC(=O)N1CCOC(CNC(C)=O)C1)Cn1c-2c(C2CCCCC2)c2ccc(C(=O)NS(=O)(=O)N(C)C)cc21 (stereo not drawn) |  |  | IC50 (HCV NS5B; Table 1a, read-out: IC50*): < 20 nM; EC50 (HCV replicon; [3]): 30 to 1000 nM
CN(C)S(=O)(=O)NC(=O)c1ccc2c(C3CCCCC3)c3n(c2c1)CC(C(=O)N1CC[C@H](F)C1)=Cc1ccccc1-3 | 10 to 1000 | 70 to 1000 | 
C[C@@H]1CN(C(=O)c2ccccc2)CCN1C(=O)C1=Cc2ccccc2-c2c(C3CCCCC3)c3ccc(C(=O)O)cc3n2C1 | 10 to 1000 | 70 to 1000 | 
COc1ccc2c(c1)C=C(C(=O)N1CCN(C(=O)C(C)(C)O)CC1)Cn1c-2c(C2CCCCC2)c2ccc(C(=O)NS(=O)(=O)N(C)C)cc21 |  |  | IC50 (HCV NS5B; Table 1b, read-out: IC50*): 20 to 1000 nM; EC50 (HCV replicon; [2]): 30 to 1000 nM
COc1ccc2c(c1)CC(C(=O)N1CC(N(C)C)C1)Cn1c-2c(C2CCCCC2)c2ccc(C(=O)NS(=O)(=O)N(C)C)cc21 (stereo not drawn) |  |  | IC50 (HCV NS5B; Table 1b, read-out: IC50*): 20 to 1000 nM; EC50 (HCV replicon; [2]): 30 to 1000 nM
CCOC(=O)CN1CCN(C(=O)C2=Cc3ccccc3-c3c(C4CCCCC4)c4ccc(C(=O)NS(=O)(=O)N(C)C)cc4n3C2)CC1 | 10 to 1000 | 70 to 1000 | 
O=C(NS(=O)(=O)N1CCOCC1)c1ccc2c(C3CCCCC3)c3n(c2c1)CC(C(=O)N1CCOCC1)=Cc1ccccc1-3 | 10 to 1000 | 70 to 1000 | 
CN1CCCC(CN(C)C(=O)C2=Cc3ccccc3-c3c(C4CCCCC4)c4ccc(C(=O)NS(=O)(=O)N(C)C)cc4n3C2)C1 (stereo not drawn) | 10 to 1000 | 70 to 1000 | 
